ChEMBL document CHEMBL4825681, “Iron-Catalyzed Skeletal Conversion of Lathyrane to Premyrsinane Euphorbia Diterpenes and Their Cytotoxic Activities” (J Nat Prod, 2021)
pIC50: −log10 of the molar value.

Test system: 4T1
Experiment: Cytotoxicity against mouse 4T1 cells assessed as reduction in cell viability incubated for 24 hrs by MTT assay
Format: functional, cell-based
Details: 4T1, 24 h

Structure (SMILES) | pIC50
C=C1CC[C@H]2[C@@H](/C=C(\C)C(=O)[C@@]3(OC(C)=O)C[C@H](C)[C@H](OC(=O)c4ccccc4)[C@@H]3[C@H]1OC(C)=O)C2(C)C | < 5.00
CC(=O)O[C@H]1C(=O)[C@@]2(C)[C@H]([C@H](OC(=O)c3ccccc3)[C@]3(O)C[C@H](OC(=O)[C@H](O)[C@@H](NC(=O)c4ccccc4)c4ccccc4)C(C)=C1C3(C)C)[C@]1(OC(C)=O)CO[C@@H]1C[C@@H]2O [PACLITAXEL] | 6.10
CC(=O)O[C@@H]1[C@H]2[C@@H](OC(=O)c3ccccc3)[C@@H](C)C[C@]2(OC(C)=O)C(=O)[C@@H](C)[C@@H]2[C@@H]3[C@H](CC[C@]21C)C3(C)C | 5.60
CC(=O)O[C@@H]1[C@H]2[C@@H](OC(=O)c3ccccc3)[C@@H](C)C[C@]2(OC(C)=O)C(=O)[C@H](C)[C@@H]2[C@@H]3[C@H](CC[C@]21C)C3(C)C | 5.09
